The values below come from patent publication US20260184707A1, “PHARMACEUTICAL COMPOUNDS FOR THE TREATMENT OF COMPLEMENT MEDIATED DISORDERS” (ALEXION PHARMACEUTICALS, INC., priority 2022, published 2026).

For this experiment, the target named is T1, Human complement C1s enzyme (Homo sapiens, UniProt P09871).
T1 construct: purified from human serum, Complement Technology, Inc; purchased Complement Technology, Inc; host or cells: human serum (plasma-derived native protein)
T1 sequence (P09871 438-688 limits assumed): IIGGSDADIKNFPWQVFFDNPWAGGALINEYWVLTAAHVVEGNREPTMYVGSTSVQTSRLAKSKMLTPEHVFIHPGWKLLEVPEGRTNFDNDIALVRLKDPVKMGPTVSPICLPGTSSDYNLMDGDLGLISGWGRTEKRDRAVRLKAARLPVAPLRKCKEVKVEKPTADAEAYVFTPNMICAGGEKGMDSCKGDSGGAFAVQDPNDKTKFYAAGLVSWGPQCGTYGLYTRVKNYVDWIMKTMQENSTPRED
T1 sequence (P09871 16-437 partner limits assumed): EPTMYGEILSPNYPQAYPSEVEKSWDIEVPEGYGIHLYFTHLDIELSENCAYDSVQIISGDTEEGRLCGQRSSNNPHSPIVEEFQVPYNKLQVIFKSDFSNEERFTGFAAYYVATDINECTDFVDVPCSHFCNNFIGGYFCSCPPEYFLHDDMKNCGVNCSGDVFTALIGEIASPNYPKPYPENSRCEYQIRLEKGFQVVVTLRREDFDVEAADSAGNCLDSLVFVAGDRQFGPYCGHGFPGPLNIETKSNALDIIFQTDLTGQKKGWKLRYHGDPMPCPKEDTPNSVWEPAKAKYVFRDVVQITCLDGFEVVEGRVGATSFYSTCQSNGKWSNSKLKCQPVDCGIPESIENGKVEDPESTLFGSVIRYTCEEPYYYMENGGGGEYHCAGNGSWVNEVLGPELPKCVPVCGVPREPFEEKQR
Nature of the experiment: Human C1s enzyme assay. Type of experiment: biochemical. Particulars: human complement C1s enzyme 1.16 nM, substrate Z-L-Lys-SBzl, A405; read-out: IC50 (Stars). How it is done: The […] values of the compounds of Table 1 were determined with the human C1s enzyme assay described below. Other standard complement assays are also available.
Human complement C1s enzyme (purified from human serum, Complement Technology, Inc.) at 1.16 nM final concentration was incubated with test compound at various concentrations for 5 min at room temperature in 50 mM Tris, 1 M NaCl, pH 7.5. A synthetic substrate Z-L-Lys-SBzl and DTNB (Ellman's reagent) were added to final concentrations of 100 μM each. Absorbance at 405 nm (A405) was recorded at 30 second intervals for […] using a microplate spectrophotometer. IC values were calculated by nonlinear regression of complement C1s reaction rates as a function of test compound concentration.
[…]; ND indicates a compound for which the IC50 value is not determined.

Each structure is given as a SMILES string.

By IC50 is commonly meant the concentration that gives 50% inhibition. Turning to `C[C@@H](Nc1cnc(N2CCCCC2)n(CC(=O)NCc2cc3cnccc3[nH]2)c1=O)c1cnc(-c2ccccc2)s1` [Compound 462, (R)-N-((1H-pyrrolo[3,2-c]pyridin-2-yl)methyl)-2-(6-oxo-5-((1-(2-phenylthiazol-5-yl)ethyl)amino)-2-(piperidin-1-yl)pyrimidin-1(6H)-yl)acet-amide], the IC50 was less than 0.1 µM.
Under `C[C@@H](Nc1cncn(CC(=O)NCc2cc3cnccc3[nH]2)c1=O)c1ccc2oc3ccccc3c2c1` [Compound 310, (R)-N-((1H-pyrrolo[3,2-c]pyridin-2-yl)methyl)-2-(5-((1-(dibenzo[b,d]furan-2-yl)ethyl)-amino)-6-oxopyrimidin-1(6H)-yl)acetamide] stands 0.1 to 1 µM; under `C[C@@H](Nc1ncc(N2CCCCC2)n(CC(=O)NCc2cc3cnccc3[nH]2)c1=O)c1ccc2oc3ccccc3c2c1` [Compound 415, (R)-N-((1H-pyrrolo[3,2-c]pyridin-2-yl)methyl)-2-(3-((1-(dibenzo[b,d]furan-2-yl)ethyl)-amino)-2-oxo-6-(piperidin-1-yl)pyrazin-1(2H)-yl)acetamide], less than 0.1 µM.
`C[C@@H](Nc1cnc(N2CCCC2)n(CC(=O)NCc2cc3cnccc3[nH]2)c1=O)c1ccc(-c2ccccc2F)cc1` [Compound 422, (R)-N-((1H-pyrrolo[3,2-c]pyridin-2-yl)methyl)-2-(5-((1-(2′-fluoro-[1,1′-biphenyl]-4-yl)ethyl)amino)-6-oxo-2-(pyr-rolidin-1-yl)pyrimidin-1(6H)-yl)acetamide]: the half-inhibitory concentration (IC50) was less than 0.1 µM.
Next, `C[C@@H](Nc1cnc(-c2cn[nH]c2)n(CC(=O)NCc2cc3cnccc3[nH]2)c1=O)c1ccc2oc3ccccc3c2c1` [Compound 360, (R)—N-((1H-pyrrolo[3,2-c]pyridin-2-yl)methyl)-2-(5-((1-(dibenzo[b,d]furan-2-yl)ethyl)amino)-6-oxo-2-(1H-pyrazol-4-yl)pyrimidin-1(6H)-yl)acetamide]: less than 0.1 µM; `O=C(Cn1c(-c2ccccc2)ncc(Nc2ccc(F)cc2)c1=O)NCc1cc2cnccc2[nH]1` [Compound 212, N-((1H-pyrrolo[3,2-c]pyridin-2-yl)methyl)-2-(5-((4-fluoro-phenyl)amino)-6-oxo-2-phen-ylpyrimidin-1(6H)-yl)acet-amide]: less than 0.1 µM; `O=C(Cn1c(-c2ccc(S(F)(F)(F)(F)F)cc2)ncc(NCCCc2ccccc2)c1=O)NCc1cc2cnccc2[nH]1` [Compound 96, N-((1H-pyrrolo[3,2-c]pyridine-2-yl)methyl)-2-(6-oxo-2-(4-(pentafluoro-λ^6-sulfanyl)phenyl)-5-((3-phenylpropyl)amino)pyrimidin-1(6H)-yl)acetamide]: less than 0.1 µM.
Consider `O=C(Cn1c(-c2ccccc2)ncc(NCCCc2cc3ccc2CCc2ccc(cc2)CC3)c1=O)NCc1cc2cnccc2[nH]1` [Compound 113, 2-(5-((3-(1,4(1,4)-dibenzenacyclohexaphane-1^2-yl)propyl)amino)-6-oxo-2-phenylpyrimidin-1(6H)-yl)-N-((1H-pyrrolo[3,2-c]pyridine-2-yl)methyl)acetamide], for which the IC50 was less than 0.1 µM.
In the case of `O=C(Cn1c(-c2ccccc2)ncc(NCCCc2ccc(C3CC3)cc2)c1=O)NCc1cc2cnccc2[nH]1` [Compound 77, N-((1H-pyrrolo[3,2-c]pyridin-2-yl)methyl)-2-(5-((3-(4-cyclo-propylphenyl)propyl)amino)-6-oxo-2-phenylpyrimidin-1(6H)-yl)acetamide], the half-maximal inhibitory concentration (IC50) was less than 0.1 µM.
On to `O=C(Cn1c(N2CCCCC2)cnc(NCc2noc3ccccc23)c1=O)NCc1cc2cnccc2[nH]1` [Compound 480, N-((1H-pyrrolo[3,2-c]pyridin-2-yl)methyl)-2-(3-((benzo[d]isoxazol-3-ylmethyl)amino)-2-oxo-6-(piperidin-1-yl)pyrazin-1(2H)-yl)acetamide], for which the half-inhibitory concentration (IC50) was less than 0.1 µM.
Regarding `Cc1nc(-c2ccccc2)n(CC(=O)NCc2cc3cnccc3[nH]2)c(=O)c1NCc1ccc2oc3ccccc3c2c1` [Compound 337, N-((1H-pyrrolo[3,2-c]pyridin-2-yl)methyl)-2-(5-((dibenzo [b,d]furan-2-ylmethyl)amino)-4-methyl-6-oxo-2-phenylpyr-imidin-1(6H)-yl)acetamide], the IC50 is less than 0.1 µM.
`O=C(Cn1c(-c2ccccc2)ncc(NCc2coc(-c3ccccc3)n2)c1=O)NCc1cc2cnccc2[nH]1` [Compound 233, N-((1H-pyrrolo[3,2-c]pyridin-2-yl)methyl)-2-(6-oxo-2-phen-yl-5-(((2-phenyloxazol-4-yl)-methyl)amino)pyrimidin-1(6H)-yl)acetamide]: the half-maximal inhibitory concentration (IC50) is less than 0.1 µM.
As for `O=C(Cn1c(-c2ccccc2)ncc(NC(=O)CCC(=O)c2ccc(Oc3ccccc3)cc2)c1=O)NCc1cc2cnccc2[nH]1` [Compound 23, N-(1-(2-(((1H-pyrrolo[3,2-c]pyridin-2-yl)methyl)amino)-2-oxoethyl)-6-oxo-2-phenyl-1,6-dihydropyrimidin-5-yl)-4-oxo-4-(4-phenoxyphenyl)butanamide], the concentration for half-maximal inhibition (IC50) is less than 0.1 µM.
Next, `COc1cc(C(=O)Nc2cnc(-c3ccccc3)n(CC(=O)NCc3cc4cnccc4[nH]3)c2=O)ccc1-c1ccccc1` [Compound 115, N-(1-(2-(((1H-pyrrolo[3,2-c]pyridin-2-yl)methyl)amino)-2-oxoethyl)-6-oxo-2-phenyl-1,6-dihydropyrimidin-5-yl)-2-methoxy-[1,1′-biphenyl]-4-carboxamide]: less than 0.1 µM.
As to `N#Cc1ccc(CCCNc2cnc(-c3ccccc3)n(CC(=O)NCc3cc4cnccc4[nH]3)c2=O)cc1` [Compound 48, N-((1H-pyrrolo[3,2-c]pyridin-2-yl)methyl)-2-(5-((3-(4-cyanophenyl)propyl)amino)-6-oxo-2-phenylpyrimidin-1(6H)-yl)acetamide], the IC50 was less than 0.1 µM.
In the case of `CO[C@@H]1CO[C@H]2[C@@H]1OC[C@H]2Oc1ncc(NCCCc2ccccc2)c(=O)n1CC(=O)NCc1cc2cnccc2[nH]1` [Compound 87, N-((1H-pyrrolo[3,2-c]pyridine-2-yl)methyl)-2-(2-(((3R,3aR,6R,6aR)-6-methoxyhexahydrofuro[3,2-b]furan-3-yl)oxy)-6-oxo-5-((3-phenylpropyl)amino)pyrimidin-1(6H)-yl)acetamide], the IC50 was in the range of 0.1 to 1 µM.
Under `O=C(Cn1c(N2CCCCC2)cnc(NCc2noc(-c3ccccc3)n2)c1=O)NCc1cc2cnccc2[nH]1` [Compound 478, N-((1H-pyrrolo[3,2-c]pyridin-2-yl)methyl)-2-(2-oxo-3-(((5-phenyl-1,2,4-oxadiazol-3-yl)-methyl)amino)-6-(piperidin-1-yl)pyrazin-1(2H)-yl)acetamide] stands less than 0.1 µM; under `O=C(Cn1c(-c2ccccc2)ncc(NCCCc2ccc3oc4ccccc4c3c2)c1=O)NCc1cc2cnccc2[nH]1` [Compound 40, N-((1H-pyrrolo[3,2-c]pyridin-2-yl)methyl)-2-(5-((3-(dibenzo [b,d]furan-2-yl)propyl)amino)-6-oxo-2-phenylpyrimidin-1(6H)-yl)acetamide], less than 0.1 µM.
As to `O=C(Cn1c(-c2ccccc2)ncc(NC(=O)c2ccc(Oc3ccc(F)cc3)cc2)c1=O)NCc1cc2cnccc2[nH]1` [Compound 52, N-(1-(2-(((1H-pyrrolo[3,2-c]pyridin-2-yl)methyl)amino)-2-oxoethyl)-6-oxo-2-phenyl-1,6-dihydropyrimidin-5-yl)-4-(4-fluorophenoxy)benzamide], the IC50 was less than 0.1 µM.
Next, `C[C@@H](Nc1cnc(N2CC3CCC2C3)n(CC(=O)NCc2cc3cnccc3[nH]2)c1=O)c1ccc2oc3ccccc3c2c1` (stereo partly drawn) [Compound 383, N-((1H-pyrrolo[3,2-c]pyridine-2-yl)methyl)-2-(2-(2-azabicyclo[2.2.1]heptan-2-yl)-5-(((R)-1-(dibenzo[b,d]furan-2-yl)ethyl)amino)-6-oxopyrimidin-1(6H)-yl)acetamide]: more than 1 µM.
On to `O=C(Cn1c(-c2ccccc2)ncc(NC(=O)Cc2ccccc2)c1=O)NCc1cc2cnccc2[nH]1` [Compound 24, N-((1H-pyrrolo[3,2-c]pyridin-2-yl)methyl)-2-(6-oxo-2-phen-yl-5-(2-phenylacetamido)pyr-imidin-1(6H)-yl)acetamide], for which the IC50 is less than 0.1 µM.
On to `C[C@@H](Nc1cnc(-c2cncs2)n(CC(=O)NCc2cc3cnccc3[nH]2)c1=O)c1ccc2oc3ccccc3c2c1` [Compound 358, (R)-N-((1H-pyrrolo[3,2-c]pyridin-2-yl)methyl)-2-(5-((1-(dibenzo[b,d]furan-2-yl)ethyl)-amino)-6-oxo-2-(thiazol-5-yl)-pyrimidin-1(6H)-yl)acetamide], for which the IC50 was less than 0.1 µM.
